Experimental data from patent US20260201008A1, “SECRETIN-DERIVED GLP1R SELECTIVE AGONISTS” (GUBRA A/S, priority 2023, published 2026).
Where two headings read alike, the source gives them in different places. Numbered stars: 1 amine (or outer) side, 2 acyl side, 3 side chain; on linkers, the order of the positions; unused ones are H or OH. Square brackets hold non-standard residues; d marks the D form. Side chains are listed from the residue outwards. Peptide text beside a SMILES is read from it. * marks the point of attachment. C20 diacid = O=C(O)CCCCCCCCCCCCCCCCCCC(=O)*; γGlu = O=C(O)[C@H](CCC(=O)[*:2])N[*:1]; AEEA = NCCOCCOCC(=O)O; Aib = CC(C)(N)C(=O)O

Key:
[1] = Turbidity of crude library peptides (absorbance at 600 nm); assay type: physicochemical; conditions: Physical stability of peptides
Method: (§1) Peptides were dissolved in buffers (50 mM sodium acetate at pH 4.0, or 50 mM sodium phosphate at pH 7.0) to 267 μM and incubated for 1-2 hours at room temperature. The samples were then divided into two replicates of 80 μl in a black 384 well plate (μ-clear, Greiner Bio-One) and mixed with Thioflavin T (ThT) to a final concentration of 4 μM. The plate was centrifuged for 2 min at 2000 rpm to remove air bubbles, sealed, and placed in a plate reader (CLARIOstar, BMG). Firstly, turbidity of the samples was measured as the absorbance at 600 nm. Secondly, the plate reader temperature was set to 40° C. and the fluorescence was measured every 10 min for 72 hours by exciting the ThT at 450 nm and measuring the emission at 480 nm. Samples were stressed by shaking the plate at 700 rpm (linear) for five minutes before every measurement, and fibril formation was determined as the average emission for each sample.

[2] = Fibril formation of crude library peptides (Thioflavin T); assay type: physicochemical; set-up: key: average ThT fluorescence emission at 480 nm (ex 450 nm), raw units; conditions: Physical stability of peptides
Method: as §1

GLP1R = GLP1R (Homo sapiens, UniProt P43220); assay: hGLP1R potency, cAMP accumulation in CHO-K1 cells stably overexpressing hGLP1R; assay type: cell-based; set-up: host or cells: CHO-K1; conditions: for Selectivity: SCTR EC50/GLP1R EC50 ratio; for EC50: cAMP accumulation, CHO-K1 cells overexpressing hGLP1R
Chain of GLP1R (P43220 24-463): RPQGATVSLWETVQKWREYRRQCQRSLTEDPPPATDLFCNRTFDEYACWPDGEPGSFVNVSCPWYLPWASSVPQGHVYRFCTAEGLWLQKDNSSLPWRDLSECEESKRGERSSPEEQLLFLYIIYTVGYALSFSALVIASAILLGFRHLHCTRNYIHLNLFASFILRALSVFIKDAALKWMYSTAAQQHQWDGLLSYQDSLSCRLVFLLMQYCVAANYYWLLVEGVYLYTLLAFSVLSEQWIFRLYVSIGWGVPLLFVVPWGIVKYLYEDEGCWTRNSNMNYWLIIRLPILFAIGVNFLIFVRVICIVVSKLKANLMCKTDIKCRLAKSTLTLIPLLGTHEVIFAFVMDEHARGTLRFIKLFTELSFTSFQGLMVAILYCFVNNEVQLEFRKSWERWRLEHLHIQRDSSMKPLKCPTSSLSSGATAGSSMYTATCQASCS
In short: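 TR-FRET cAMP read-out, one hour after reagent addition, following 30 min compound exposure at RT in DPBS/0.05% casein/0.5 mM IBMX. Crude peptides: 5 points, 10-fold steps, n=1. Purified peptides: 11 points, 3-fold steps, n=2. EC50 fitted with a variable-slope sigmoid.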

SCTR = SCTR (Homo sapiens, UniProt P47872); assay: hSCTR potency, cAMP accumulation in CHO-K1 cells stably overexpressing hSCTR; assay type: cell-based; set-up: alternatively Euroscreen ES-712-AF; FAST-0161L; host or cells: CHO-K1; conditions: cAMP accumulation, CHO-K1 cells overexpressing hSCTR
Chain of SCTR (P47872 23-440): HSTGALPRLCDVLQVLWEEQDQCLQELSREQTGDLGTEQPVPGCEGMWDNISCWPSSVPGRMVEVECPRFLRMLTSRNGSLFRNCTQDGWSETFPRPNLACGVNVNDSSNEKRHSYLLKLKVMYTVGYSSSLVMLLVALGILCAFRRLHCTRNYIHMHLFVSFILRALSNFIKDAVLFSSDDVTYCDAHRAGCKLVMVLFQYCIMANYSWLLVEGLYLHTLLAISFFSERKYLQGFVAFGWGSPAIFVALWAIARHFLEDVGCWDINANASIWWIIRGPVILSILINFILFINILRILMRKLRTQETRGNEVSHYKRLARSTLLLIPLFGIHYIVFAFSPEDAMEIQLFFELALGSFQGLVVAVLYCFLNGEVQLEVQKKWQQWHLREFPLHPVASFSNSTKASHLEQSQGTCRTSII
In short: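 CHO-K1/hSCTR cells; DPBS + 0.05% casein + 0.5 mM IBMX; 30 min RT stimulation; cAMP by TR-FRET read at 1 h. Crude peptides: 5-point 10-fold dilutions, n=1. Purified: 11-point 3-fold dilutions, n=2. EC50 via variable-slope fit.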

[3] = read-out: pEC50 hGLPR1 (converted)
[4] = read-out: pEC50 hSCTR (converted)

SMILES | Turbidity (pH 7) [1] | Fibril formation [2] | Selectivity (GLP1R) | EC50 (GLP1R; [3]) [nM] | EC50 (SCTR; [4]) [nM] | EC50 (GLP1R; read-out: hGLP1R pEC50 (converted)) [nM] | SCTR EC50/GLP1R EC50 ratio (GLP1R; selectivity for hGLP1R over hSCTR, cAMP accumulation in CHO-K1 cells) | EC50 (SCTR; read-out: hSCTR pEC50 (converted)) [nM]
CC(C)C[C@H](NC(=O)[C@H](Cc1ccccc1)NC(=O)[C@H](CCCNC(=N)N)NC(=O)[C@H](CCC(N)=O)NC(=O)[C@H](CCC(N)=O)NC(=O)[C@H](C)NC(=O)[C@H](C)NC(=O)C(C)(C)NC(=O)[C@H](CCC(=O)O)NC(=O)[C@H](CCCCNC(=O)COCCOCCNC(=O)COCCOCCNC(=O)CC[C@H](NC(=O)CCCCCCCCCCCCCCCCCCC(=O)O)C(=O)O)NC(=O)[C@H](CC(C)C)NC(=O)[C@@H](NC(=O)[C@H](CO)NC(=O)[C@@H](NC(=O)[C@H](CC(=O)O)NC(=O)[C@H](CO)NC(=O)[C@@H](NC(=O)[C@H](Cc1ccccc1)NC(=O)[C@@H](NC(=O)CNC(=O)[C@H](CCC(=O)O)NC(=O)C(C)(C)NC(=O)[C@@H](N)Cc1c[nH]cn1)[C@@H](C)O)[C@@H](C)O)C(C)C)C(C)C)C(=O)N[C@@H](CCC(=O)O)C(=O)N[C@@H](Cc1c[nH]cn1)C(=O)N[C@@H](CC(C)C)C(=O)N[C@H](C(N)=O)C(C)C [compound 40] (H-H[Aib]EGTFTSDVSVLK([AEEA-AEEA-γGlu-C20 diacid])E[Aib]AAQQRFLEHLV-NH2) | 0.08 | 12180 | 21943 | 0.02 | 398 | – | – | –
CC(C)C[C@H](NC(=O)[C@H](Cc1ccccc1)NC(=O)[C@H](CCCNC(=N)N)NC(=O)[C@H](CCC(N)=O)NC(=O)[C@H](CCC(N)=O)NC(=O)[C@H](C)NC(=O)[C@H](C)NC(=O)[C@H](CCC(=O)O)NC(=O)[C@H](CCC(=O)O)NC(=O)[C@H](CCCCNC(=O)COCCOCCNC(=O)COCCOCCNC(=O)CC[C@H](NC(=O)CCCCCCCCCCCCCCCCCCC(=O)O)C(=O)O)NC(=O)[C@H](CC(C)C)NC(=O)[C@H](CCC(=O)O)NC(=O)[C@H](CO)NC(=O)[C@@H](NC(=O)[C@H](CC(=O)O)NC(=O)[C@H](CO)NC(=O)[C@@H](NC(=O)[C@H](Cc1ccccc1)NC(=O)[C@@H](NC(=O)CNC(=O)[C@H](CCC(=O)O)NC(=O)C(C)(C)NC(=O)[C@@H](N)Cc1c[nH]cn1)[C@@H](C)O)[C@@H](C)O)C(C)C)C(=O)N[C@@H](CCC(=O)O)C(=O)N[C@@H](Cc1c[nH]cn1)C(=O)N[C@@H](CC(C)C)C(=O)N[C@H](C(N)=O)C(C)C [compound 14] (H-H[Aib]EGTFTSDVSELK([AEEA-AEEA-γGlu-C20 diacid])EEAAQQRFLEHLV-NH2) | 0.08 | 10247 | 9917 | 0.02 | 200 | – | – | –
CC[C@H](C)[C@H](NC(=O)[C@H](Cc1ccccc1)NC(=O)[C@H](CCCNC(=N)N)NC(=O)[C@H](CCC(N)=O)NC(=O)[C@H](CC(C)C)NC(=O)[C@H](C)NC(=O)[C@H](C)NC(=O)CNC(=O)[C@H](CCC(=O)O)NC(=O)[C@H](CC(C)C)NC(=O)[C@H](CC(C)C)NC(=O)[C@H](Cc1ccc(O)cc1)NC(=O)[C@H](CO)NC(=O)[C@@H](NC(=O)[C@H](CC(=O)O)NC(=O)[C@H](CO)NC(=O)[C@@H](NC(=O)[C@H](Cc1ccccc1)NC(=O)[C@@H](NC(=O)CNC(=O)[C@H](CCC(=O)O)NC(=O)C(C)(C)NC(=O)[C@@H](N)Cc1c[nH]cn1)[C@@H](C)O)[C@@H](C)O)[C@@H](C)CC)C(=O)N[C@@H](CCC(N)=O)C(=O)N[C@@H](Cc1c[nH]c2ccccc12)C(=O)N[C@@H](CC(C)C)C(=O)N[C@H](C(N)=O)C(C)C [compound 112] (H-H[Aib]EGTFTSDISYLLEGAALQRFIQWLV-NH2) | 0.29 | 93630 | – | – | – | 0.0158 | 164097 | 2510
CC(C)C[C@H](NC(=O)[C@H](Cc1ccccc1)NC(=O)[C@H](CCCNC(=N)N)NC(=O)[C@H](CCC(N)=O)NC(=O)[C@H](C)NC(=O)[C@H](C)NC(=O)[C@H](C)NC(=O)[C@H](CCC(=O)O)NC(=O)[C@H](CCC(=O)O)NC(=O)[C@H](CCCCNC(=O)COCCOCCNC(=O)COCCOCCNC(=O)CC[C@H](NC(=O)CCCCCCCCCCCCCCCCCCC(=O)O)C(=O)O)NC(=O)[C@H](CC(C)C)NC(=O)[C@H](CCCNC(=N)N)NC(=O)[C@H](CO)NC(=O)[C@@H](NC(=O)[C@H](CC(=O)O)NC(=O)[C@H](CO)NC(=O)[C@@H](NC(=O)[C@H](Cc1ccccc1)NC(=O)[C@@H](NC(=O)CNC(=O)[C@H](CCC(=O)O)NC(=O)C(C)(C)NC(=O)[C@@H](N)Cc1c[nH]cn1)[C@@H](C)O)[C@@H](C)O)C(C)C)C(=O)N[C@@H](CCC(=O)O)C(=O)N[C@@H](Cc1c[nH]cn1)C(=O)N[C@@H](CC(C)C)C(=O)N[C@H](C(N)=O)C(C)C [compound 60] (H-H[Aib]EGTFTSDVSRLK([AEEA-AEEA-γGlu-C20 diacid])EEAAAQRFLEHLV-NH2) | 0.09 | 11873 | 9419 | 0.0316 | 251 | – | – | –
CC(C)C[C@H](NC(=O)[C@H](CCC(=O)O)NC(=O)[C@H](CCCCNC(=O)COCCOCCNC(=O)COCCOCCNC(=O)CC[C@H](NC(=O)CCCCCCCCCCCCCCCCCCC(=O)O)C(=O)O)NC(=O)[C@H](CC(C)C)NC(=O)[C@@H](NC(=O)[C@H](CO)NC(=O)[C@@H](NC(=O)[C@H](CC(=O)O)NC(=O)[C@H](CO)NC(=O)[C@@H](NC(=O)[C@H](Cc1ccccc1)NC(=O)[C@@H](NC(=O)CNC(=O)[C@H](CCC(=O)O)NC(=O)C(C)(C)NC(=O)[C@@H](N)Cc1c[nH]cn1)[C@@H](C)O)[C@@H](C)O)C(C)C)[C@@H](C)O)C(=O)N[C@@H](C)C(=O)N[C@@H](C)C(=O)NC(C)(C)C(=O)N[C@@H](CCC(N)=O)C(=O)N[C@@H](CCCNC(=N)N)C(=O)N[C@@H](Cc1ccccc1)C(=O)N[C@@H](CC(C)C)C(=O)N[C@@H](CCC(=O)O)C(=O)N[C@@H](Cc1c[nH]cn1)C(=O)N[C@@H](CC(C)C)C(=O)N[C@H](C(N)=O)C(C)C [compound 79] (H-H[Aib]EGTFTSDVSTLK([AEEA-AEEA-γGlu-C20 diacid])ELAA[Aib]QRFLEHLV-NH2) | 0.08 | 12190 | 30234 | 0.1 | 3160 | – | – | –
CC(C)C[C@H](NC(=O)[C@H](Cc1ccccc1)NC(=O)[C@H](CCCNC(=N)N)NC(=O)[C@H](CCC(N)=O)NC(=O)[C@H](CO)NC(=O)[C@H](C)NC(=O)[C@H](C)NC(=O)C(C)(C)NC(=O)[C@H](CCC(=O)O)NC(=O)[C@H](CCCCNC(=O)COCCOCCNC(=O)COCCOCCNC(=O)CC[C@H](NC(=O)CCCCCCCCCCCCCCCCCCC(=O)O)C(=O)O)NC(=O)[C@H](CC(C)C)NC(=O)[C@H](CCCNC(=N)N)NC(=O)[C@H](CO)NC(=O)[C@@H](NC(=O)[C@H](CC(=O)O)NC(=O)[C@H](CO)NC(=O)[C@@H](NC(=O)[C@H](Cc1ccccc1)NC(=O)[C@@H](NC(=O)CNC(=O)[C@H](CCC(=O)O)NC(=O)C(C)(C)NC(=O)[C@@H](N)Cc1c[nH]cn1)[C@@H](C)O)[C@@H](C)O)C(C)C)C(=O)N[C@@H](CCC(=O)O)C(=O)N[C@@H](Cc1c[nH]cn1)C(=O)N[C@@H](CC(C)C)C(=O)N[C@H](C(N)=O)C(C)C [compound 59] (H-H[Aib]EGTFTSDVSRLK([AEEA-AEEA-γGlu-C20 diacid])E[Aib]AASQRFLEHLV-NH2) | 0.09 | 13939 | 4314 | 0.0316 | 126 | – | – | –
CC(C)C[C@H](NC(=O)[C@H](Cc1ccccc1)NC(=O)[C@H](CCCNC(=N)N)NC(=O)[C@H](CCC(N)=O)NC(=O)[C@H](C)NC(=O)[C@H](C)NC(=O)[C@H](C)NC(=O)[C@H](Cc1ccccc1)NC(=O)[C@H](CCC(=O)O)NC(=O)[C@H](CCCCNC(=O)COCCOCCNC(=O)COCCOCCNC(=O)CC[C@H](NC(=O)CCCCCCCCCCCCCCCCCCC(=O)O)C(=O)O)NC(=O)[C@H](CC(C)C)NC(=O)[C@H](CCCNC(=N)N)NC(=O)[C@H](CO)NC(=O)[C@@H](NC(=O)[C@H](CC(=O)O)NC(=O)[C@H](CO)NC(=O)[C@@H](NC(=O)[C@H](Cc1ccccc1)NC(=O)[C@@H](NC(=O)CNC(=O)[C@H](CCC(=O)O)NC(=O)C(C)(C)NC(=O)[C@@H](N)Cc1c[nH]cn1)[C@@H](C)O)[C@@H](C)O)C(C)C)C(=O)N[C@@H](CCC(=O)O)C(=O)N[C@@H](Cc1c[nH]cn1)C(=O)N[C@@H](CC(C)C)C(=O)N[C@H](C(N)=O)C(C)C [compound 2] (H-H[Aib]EGTFTSDVSRLK([AEEA-AEEA-γGlu-C20 diacid])EFAAAQRFLEHLV-NH2) | 0.08 | 89647 | 6431 | 0.0794 | 501 | – | – | –
